Reference: ChEMBL document CHEMBL1201862, “PubChem BioAssay data set” (2004)
Calls of active or inactive are those of the source.

Assays:
[1] = viability loss in HeLa cells – cytotoxicity control for MgcRacGAP inhibitor project, dose response (AID 624300); format: functional
[2] = biological target: T1, Rac GTPase-activating protein 1 (Homo sapiens, UniProt Q9H0H5); test: blockers of MgcRacGAP-driven Rac1 GTP hydrolysis – biochemical, ADP Hunter fluorescence, primary and confirmatory, confirmation (AID 624330); format: functional
T1 sequence (Q9H0H5 whole entry): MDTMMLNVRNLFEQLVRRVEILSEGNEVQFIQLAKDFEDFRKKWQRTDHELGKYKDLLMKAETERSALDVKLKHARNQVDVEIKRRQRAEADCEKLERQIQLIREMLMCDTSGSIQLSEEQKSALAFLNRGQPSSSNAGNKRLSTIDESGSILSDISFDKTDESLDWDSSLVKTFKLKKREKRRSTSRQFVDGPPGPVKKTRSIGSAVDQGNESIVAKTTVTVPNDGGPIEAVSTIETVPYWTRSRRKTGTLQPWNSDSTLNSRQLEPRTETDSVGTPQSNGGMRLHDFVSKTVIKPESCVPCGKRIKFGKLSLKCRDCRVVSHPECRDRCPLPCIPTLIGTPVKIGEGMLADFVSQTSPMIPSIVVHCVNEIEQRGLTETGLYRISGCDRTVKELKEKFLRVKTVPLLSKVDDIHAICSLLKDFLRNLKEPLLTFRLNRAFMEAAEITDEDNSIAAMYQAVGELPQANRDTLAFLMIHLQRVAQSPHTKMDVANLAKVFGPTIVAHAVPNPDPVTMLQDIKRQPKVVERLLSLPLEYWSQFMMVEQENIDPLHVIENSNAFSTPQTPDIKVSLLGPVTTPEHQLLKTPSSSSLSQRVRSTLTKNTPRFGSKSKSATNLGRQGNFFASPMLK

[3] = NIH-3T3 fibroblast cytotoxicity, dose response, cytotoxicity control, cell-based, fluorescence, Alamar Blue, secondary assay (AID 2327); format: functional;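 also: NIH-3T3 mouse fibroblasts cultured with fluconazole at 8 µg/mL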
[4] = fluconazole-exposed Candida albicans growth modulators – fluorescence, retest, confirmation (AID 2467); format: functional, cell-based
[5] = Trypanosoma cruzi growth suppression in host cells – NIH3T3 host cells, beta-gal luminescence, confirmation (AID 2044); format: functional, cell-based;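 also: intracellular parasites grown in NIH/3T3 mouse fibroblasts as host cells; luminescent beta-galactosidase reporter signal from transgenic T. cruzi replicating inside host cells; inhibitors lower the luminescence signal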
[6] = NIH3T3 cell viability loss – ATP luminescence, mouse fibroblasts, counter-screen, dose response (AID 2010); format: functional, cell-based;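 also: cells exposed to compound for about 90 hours before reading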
cells [7] = format: functional, cell-based
[8] = biological target: T2, Trace amine-associated receptor 1 (Homo sapiens, UniProt Q96RJ0); test: Fluorescence-based cell-based high throughput dose response assay to identify agonists of the human trace amine associated receptor 1 (TAAR1).; format: functional
T2 sequence (Q96RJ0 whole entry): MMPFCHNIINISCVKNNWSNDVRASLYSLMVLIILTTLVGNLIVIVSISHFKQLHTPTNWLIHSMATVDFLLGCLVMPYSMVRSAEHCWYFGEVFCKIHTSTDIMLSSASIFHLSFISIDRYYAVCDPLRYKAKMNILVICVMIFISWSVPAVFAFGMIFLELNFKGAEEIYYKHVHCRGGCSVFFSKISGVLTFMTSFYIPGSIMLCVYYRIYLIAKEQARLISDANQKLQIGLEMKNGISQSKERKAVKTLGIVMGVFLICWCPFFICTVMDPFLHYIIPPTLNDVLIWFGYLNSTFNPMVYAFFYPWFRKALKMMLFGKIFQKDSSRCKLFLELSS

[9] = biological target: T2, Trace amine-associated receptor 1; test: Counterscreen for agonists of the human trace amine associated receptor 1 (hTAAR1): Fluorescence-based cell-based high throughput dose response assay to identify hTAAR1 agonist that also desensitize TAAR1 receptor response.; format: functional
cells [10] = format: functional, cell-based; remark: listed apart in the source
H9c2 = test: cells; format: functional, cell-based; settings: Rattus norvegicus, H9c2, Myocardium;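 also: confirmatory concentration-response retest of ultra-high-throughput screening hits for modulation of myocardial damage; cell death induced by hydrogen peroxide oxidative stress; compound pretreatment for 60 min then peroxide exposure for 2 h; potency is for protecting the cells against peroxide damage rather than for killing them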
Leucine aminopeptidase = biological target: T3, Leucine aminopeptidase (Plasmodium falciparum 3D7, UniProt Q8IL11); test: P. falciparum M17LAP inhibitors, primary screen, biochemical, fluorogenic H-Leu-NHMec substrate, 1536-well (AID 1619); format: functional
T3 sequence (Q8IL11 whole entry): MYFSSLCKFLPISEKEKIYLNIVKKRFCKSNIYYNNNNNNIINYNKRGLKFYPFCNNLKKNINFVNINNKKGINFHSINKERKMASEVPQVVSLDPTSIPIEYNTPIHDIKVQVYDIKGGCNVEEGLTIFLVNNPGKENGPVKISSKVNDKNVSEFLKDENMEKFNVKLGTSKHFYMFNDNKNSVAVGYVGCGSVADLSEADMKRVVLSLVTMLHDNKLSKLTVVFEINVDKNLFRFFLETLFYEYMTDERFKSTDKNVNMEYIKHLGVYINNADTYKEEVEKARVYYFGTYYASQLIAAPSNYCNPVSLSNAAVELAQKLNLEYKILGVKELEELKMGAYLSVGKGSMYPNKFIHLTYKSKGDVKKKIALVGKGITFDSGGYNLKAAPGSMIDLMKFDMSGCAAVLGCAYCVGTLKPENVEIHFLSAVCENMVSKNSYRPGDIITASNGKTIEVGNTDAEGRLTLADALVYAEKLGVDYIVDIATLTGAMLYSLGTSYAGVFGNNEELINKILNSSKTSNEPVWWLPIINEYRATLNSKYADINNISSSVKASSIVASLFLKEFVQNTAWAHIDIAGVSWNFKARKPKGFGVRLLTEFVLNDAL

Large T antigen = Large T antigen (Simian virus 40, UniProt P03070); format: functional, Betapolyomavirus macacae;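 also: Confirmatory-stage PubChem screen for compounds that inhibit SV40 T antigen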
[11] = biological target: T4, DNA repair and recombination protein RAD54-like (Homo sapiens, UniProt Q92698); test: RAD54 Holliday junction migration blockers – biochemical, fluorescence, cherry-picked samples, dose series, confirmation (AID 651657); format: functional
T4 sequence (Q92698 whole entry): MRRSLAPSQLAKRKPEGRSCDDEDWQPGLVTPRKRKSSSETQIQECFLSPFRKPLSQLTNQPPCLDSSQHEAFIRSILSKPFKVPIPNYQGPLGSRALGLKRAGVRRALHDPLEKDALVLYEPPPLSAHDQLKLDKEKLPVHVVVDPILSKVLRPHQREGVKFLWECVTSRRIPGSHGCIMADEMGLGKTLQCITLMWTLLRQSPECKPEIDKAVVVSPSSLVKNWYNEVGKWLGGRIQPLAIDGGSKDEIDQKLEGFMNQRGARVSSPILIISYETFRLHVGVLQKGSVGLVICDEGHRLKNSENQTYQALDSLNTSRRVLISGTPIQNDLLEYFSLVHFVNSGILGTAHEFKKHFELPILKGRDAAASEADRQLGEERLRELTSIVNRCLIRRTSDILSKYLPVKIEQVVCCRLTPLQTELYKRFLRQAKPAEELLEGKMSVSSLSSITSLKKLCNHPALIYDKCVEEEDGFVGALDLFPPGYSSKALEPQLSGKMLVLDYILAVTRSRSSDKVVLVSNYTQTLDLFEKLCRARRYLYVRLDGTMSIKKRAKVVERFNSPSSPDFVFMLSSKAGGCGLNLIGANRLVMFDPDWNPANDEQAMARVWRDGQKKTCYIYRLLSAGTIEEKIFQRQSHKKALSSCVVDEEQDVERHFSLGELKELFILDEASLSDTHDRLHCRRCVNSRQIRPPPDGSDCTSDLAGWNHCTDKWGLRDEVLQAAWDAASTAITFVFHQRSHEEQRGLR

[12] = biological target: T5, Sentrin-specific protease 8 (Homo sapiens, UniProt Q96LD8); format: functional
T5 sequence (Q96LD8 whole entry): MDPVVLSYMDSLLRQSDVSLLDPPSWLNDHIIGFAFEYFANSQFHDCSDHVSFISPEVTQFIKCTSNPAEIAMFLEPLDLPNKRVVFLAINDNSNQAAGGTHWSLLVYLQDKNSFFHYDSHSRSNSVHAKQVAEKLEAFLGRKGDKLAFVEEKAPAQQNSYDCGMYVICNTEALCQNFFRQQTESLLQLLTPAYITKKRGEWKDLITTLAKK

[13] = biological target: T5, Sentrin-specific protease 8; format: functional; remark: listed apart in the source
[14] = biological target: T6, Heat shock factor protein 1 (Mus musculus, UniProt P38532); test: enhancement of HSF1-driven luciferase signal – cell-based, NIH3T3, luminescence, dose retest, confirmation (AID 435004); format: functional;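 also: stress induced by proteasome inhibitor MG132 added 30 min after compound; luciferase reporter driven by HSF1 response element in NIH3T3 cells; actives raise luminescence as potentiators of the MG132 stress response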
T6 sequence (P38532 whole entry): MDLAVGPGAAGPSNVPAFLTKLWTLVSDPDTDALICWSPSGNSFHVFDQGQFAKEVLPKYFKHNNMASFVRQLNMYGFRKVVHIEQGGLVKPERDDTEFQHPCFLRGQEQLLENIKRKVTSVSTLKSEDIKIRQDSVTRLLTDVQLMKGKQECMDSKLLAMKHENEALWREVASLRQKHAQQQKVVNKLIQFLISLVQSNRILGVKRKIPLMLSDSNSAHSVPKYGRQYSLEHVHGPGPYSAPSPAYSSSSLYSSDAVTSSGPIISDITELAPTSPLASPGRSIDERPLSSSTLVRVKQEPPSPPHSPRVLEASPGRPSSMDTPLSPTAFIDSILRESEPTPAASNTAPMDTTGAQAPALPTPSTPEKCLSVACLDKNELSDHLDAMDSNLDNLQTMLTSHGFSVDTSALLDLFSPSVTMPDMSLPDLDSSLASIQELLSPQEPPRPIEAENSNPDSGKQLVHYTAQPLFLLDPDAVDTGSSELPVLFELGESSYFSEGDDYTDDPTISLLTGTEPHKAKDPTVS

[15] = Luminescence Cell-Based Dose Retest to Confirm Inhibitors of Cancer Stem Cells. [Related pubchem assays (depositor defined):AID2717, AID2721]; format: functional; settings: Homo sapiens
[16] = biological target: T7, DNA repair protein RAD52 homolog (Homo sapiens, UniProt P43351); format: functional, biochemical
T7 sequence (P43351 whole entry): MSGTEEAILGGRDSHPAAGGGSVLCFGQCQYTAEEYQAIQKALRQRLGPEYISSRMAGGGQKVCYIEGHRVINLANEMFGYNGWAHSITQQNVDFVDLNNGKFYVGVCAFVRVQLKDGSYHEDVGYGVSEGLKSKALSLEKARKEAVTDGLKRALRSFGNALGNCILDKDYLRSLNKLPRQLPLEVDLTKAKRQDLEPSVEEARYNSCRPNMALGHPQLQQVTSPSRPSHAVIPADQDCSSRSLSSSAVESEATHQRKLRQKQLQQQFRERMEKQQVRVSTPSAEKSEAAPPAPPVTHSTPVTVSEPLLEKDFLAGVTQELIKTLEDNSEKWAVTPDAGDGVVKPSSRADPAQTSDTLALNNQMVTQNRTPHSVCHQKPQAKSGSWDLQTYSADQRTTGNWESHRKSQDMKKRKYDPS

Vero = test: cells; format: functional; settings: Chlorocebus sabaeus

Large T antigen, sequence (P03070 whole entry): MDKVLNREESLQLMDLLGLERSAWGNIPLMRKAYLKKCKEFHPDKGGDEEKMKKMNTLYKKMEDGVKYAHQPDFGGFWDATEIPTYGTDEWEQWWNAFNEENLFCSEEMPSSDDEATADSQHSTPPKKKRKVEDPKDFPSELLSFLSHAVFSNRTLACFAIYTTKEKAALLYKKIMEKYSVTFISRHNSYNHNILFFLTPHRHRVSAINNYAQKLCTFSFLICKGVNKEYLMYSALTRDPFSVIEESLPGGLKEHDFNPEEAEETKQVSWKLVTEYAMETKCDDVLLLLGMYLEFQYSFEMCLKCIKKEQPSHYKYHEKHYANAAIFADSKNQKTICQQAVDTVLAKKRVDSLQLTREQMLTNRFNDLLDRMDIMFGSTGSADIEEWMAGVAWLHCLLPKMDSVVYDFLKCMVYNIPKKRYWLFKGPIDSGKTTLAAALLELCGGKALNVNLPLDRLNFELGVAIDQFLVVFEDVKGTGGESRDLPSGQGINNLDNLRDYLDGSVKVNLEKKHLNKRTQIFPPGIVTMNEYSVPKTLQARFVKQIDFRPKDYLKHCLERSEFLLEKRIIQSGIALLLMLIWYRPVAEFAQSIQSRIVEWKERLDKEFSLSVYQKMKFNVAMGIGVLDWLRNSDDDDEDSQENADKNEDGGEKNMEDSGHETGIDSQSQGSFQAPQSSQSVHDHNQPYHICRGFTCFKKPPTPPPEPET

OC(CON=C1c2ccccc2-c2ccccc21)CN1CCNCC1 (stereo unspecified)
CC50 [1]: 100 µM (active)
IC50 [2]: 62.7 µM (active)

N=C(NOC(=O)N1c2ccccc2Sc2ccccc21)c1ccccc1
EC50 [3]: > 160 µM (inactive)
EC50 [4]: 1.22 µM (active)
EC50 [5]: 0.814 µM (active)
EC50 [6]: > 60 µM (not active)
CC50 [1]: 100 µM (active)

Cc1cccn2c(CNCC3OCCc4ccccc43)c(C(=O)N3CCCCC3)nc12 (stereo unspecified)
IC50 (cells [7]): > 29.9 µM (inactive)
EC50 [8]: 4.38 µM (active)
IC50 [9]: 4.82 µM (active)
EC50 (cells [10]): > 29.9 µM (inactive)

COc1ccc(CSc2nc(O)c3ccccc3n2)cc1F
IC50 (H9c2): > 79 µM (inactive)

COc1ccc(Nc2cc(C)nc(N3CCOCC3)n2)cc1
IC50 (cells [7]): > 29.9 µM (inactive)
EC50 [8]: 3.33 µM (active)
IC50 [9]: > 29.9 µM (inactive)
EC50 (cells [10]): > 29.9 µM (inactive)

CC(C)C1N=C2c3ccccc3N=C(SCC(=O)c3ccc(O)c(O)c3)N2C1=O (stereo unspecified)
IC50 (Leucine aminopeptidase): 17.7 µM (active)
IC50 (Large T antigen): 21.3 µM (active)
CC50 [1]: 100 µM (active)
IC50 [2]: 26.1 µM (active)

c1cc2c3c(cccc3c1)C(N1CCCCC1)=N2
AC50 [11]: 34 µM (active)

Cc1cc(C)n(C(CC(=O)N2CCc3ccccc3C2)C(=O)O)n1 (stereo unspecified)
IC50 [12]: > 100 µM (inactive)
IC50 [13]: 16.5 µM (active)
IC50 (cells [7]): > 29.9 µM (inactive)
EC50 [8]: 1.06 µM (active)
IC50 [9]: 4.32 µM (active)
EC50 (cells [10]): > 29.9 µM (inactive)

Cc1n[nH]c(-c2ccc(O)c(C)c2O)c1-c1cnn(-c2ccccc2)c1
EC50 [3]: > 160 µM (inconclusive)
EC50 [4]: > 38 µM (not active)
EC50 [14]: > 260 µM (inactive)
CC50 [1]: 98.9 µM (active)
IC50 [2]: 85.8 µM (active)

Cc1cccc(NC(=O)c2[nH]cnc2C(=O)NCCCNC(=O)c2nc[nH]c2C(=O)Nc2cccc(C)c2)c1
AC50 [15]: 10.6 µM (active)
IC50 (H9c2): 26.2 µM (active)

CN(C)CCCNc1nc2cc(-c3cccc(Cl)c3)sc2c(=O)n1C
AC50 [11]: 32.9 µM (active)
AC50 [16]: 4.7 µM (active)

COc1cc2ccnc(C=O)c2cc1OC
IC50 (H9c2): 14.5 µM (active)
CC50 (Vero): > 25 µM (active)

CCCCCCCCN1C(=O)[C@H](CC(=O)NCCc2ccccc2OC)C[C@@]2(C(=O)OC)CCCCC=C12
IC50 (cells [7]): > 29.9 µM (inactive)
EC50 [8]: 7.05 µM (active)
IC50 [9]: 9.43 µM (active)
EC50 (cells [10]): > 29.9 µM (inactive)

CC(Nc1ccnc2cc(Cl)ccc12)c1ccc(S(N)(=O)=O)cc1 (stereo unspecified)
IC50 (cells [7]): > 29.9 µM (inactive)
EC50 [8]: 14.9 µM (inactive)
IC50 [9]: > 29.9 µM (inactive)
EC50 (cells [10]): > 29.9 µM (inactive)
